Legend:
[1] = tested on: Male Wistar rats; experiment: Oral glucose tolerance test, combination effect with glinides; type: in vivo, rat; conditions: for Plasma glucose concentration (mg/dL) Just before administration: fasted rats, baseline before oral dosing; for Plasma glucose concentration (mg/dL) Just before administration / Plasma glucose concentration (mg/dL) 1 hr after administration: mean ± standard error; for Plasma glucose concentration at 1 hr compared with the Control group (in words) / Plasma glucose concentration (mg/dL) 1 hr after administration: oral, monosebacate 0.03 mg/kg as free form, mitiglinide calcium hydrate 0.3 mg/kg, oral glucose load
Description: (§1) Male Wistar rats (Charles River Japan, Inc.) at 9 weeks of age, fasted about 16 hours (each group has 6 animals), were administrated orally in a volume of 2.5 mL/kg with distilled water and 0.1% methylcellulose solution in the Control group, with the monosebacate (0.03 mg/kg as the above compound (B) (free form)) dissolved in distilled water (hereinafter referred to as the “monosebacate solution”) and 0.1% methylcellulose solution in the Monosebacate alone group, with gliclazide (0.3 mg/kg as gliclazide) dissolved in 0.1% methylcellulose solution (hereinafter referred to as the “gliclazide solution”) and distilled water in the Gliclazide alone group and with the monosebacate solution and the gliclazide solution (0.03 mg/kg as the compound (B) and 0.3 mg/kg as gliclazide) in the Gliclazide combination group, respectively. Subsequently, 0.4 g/mL of glucose solution (5 mL/kg) was loaded orally. The blood was collected from tail vein before and 1 hr after administration of test substance, and the plasma glucose concentrations were measured using Glucose C-II test WAKO (Wako Pure Chemical Industries, Ltd.). The numerical values in the table represent mean value±standard error.
Instead of gliclazide in the Gliclazide alone group and the Gliclazide combination group, mitiglinide calcium hydrate (JAN) (0.3 mg/kg as mitiglinide calcium hydrate) was used (hereinafter referred to as the “Mitiglinide alone group” and the “Mitiglinide combination group”, respectively), and the plasma glucose concentrations were measured in the same way as the above method (1). The numerical values in the table represent mean value±standard error.

[2] = tested on: Male Wistar rats; experiment: Oral glucose tolerance test, combination effect with sulfonylureas; type: in vivo, rat; conditions: for Plasma glucose concentration (mg/dL) Just before administration: fasted rats, baseline before oral dosing; for Plasma glucose concentration (mg/dL) Just before administration / Plasma glucose concentration (mg/dL) 1 hr after administration: mean ± standard error; for Plasma glucose concentration at 1 hr compared with the Control group (in words) / Plasma glucose concentration (mg/dL) 1 hr after administration: oral, monosebacate 0.03 mg/kg as free form, gliclazide 0.3 mg/kg, oral glucose load
Description: as §1

[3] = Storage stability test (purity by HPLC, deliquescence); type: physicochemical; conditions: for Purity (%) Initial / Purity (%) After 2 months: HPLC; for Storage stability (in words): 2 months
Description: The crystals of the monosebacate in Example 1 and amorphous 3-(3-{4-[3-(β-D-glucopyranosyloxy)-5-isopropyl-1H-pyrazol-4-ylmethyl]-3-methylphenoxy} propylamino)-2,2-dimethylpropionamide (free form) as Comparative Example were stored under condition of 40° C./75% relative humidity or 60° C. in open vessels, existence or nonexistence of the deliquescence and the storage stability for 2 months were examined. […] Analytical conditions of HPLC are as follows.
Detector: ultraviolet-visible absorption spectrophotometer
Column: LUNA C18(2) (produced by Phenomenex), 5 μm, 4.6×250 mm, particle diameter 100×10^−10 m
Column Temperature: a constant temperature of around 25° C.
Sample concentration: 1 mg/mL
Mobile phase A: 10 mM dipotassium hydrogenphosphate aqueous solution adjusted to pH 7.8 with phosphoric acid
Mobile phase B: Acetonitrile
0-30 min: Mobile phase A/Mobile phase B=78/22, 30-50 min: Mobile phase A/Mobile phase B=78/22→30/70, 50-60 min: Mobile phase A/Mobile phase B=30/70
Range of area measurement: for 50 minutes from the start, except for the area of the peak of the blank solution

[4] = 40° C./75% relative humidity storage test
[5] = 60° C. in open vessels storage test
[6] = stored at 40° C./75% relative humidity for 2 months
[7] = stored at 60° C. in open vessels for 2 months

Molecule	Plasma glucose concentration (mg/dL) Just before administration [1]	Plasma glucose concentration at 1 hr compared with the Control group (in words) [1]	Plasma glucose concentration (mg/dL) 1 hr after administration [1]	Plasma glucose concentration (mg/dL) Just before administration [2]	Plasma glucose concentration at 1 hr compared with the Control group (in words) [2]	Plasma glucose concentration (mg/dL) 1 hr after administration [2]	Deliquescence ([3]; 40° C./75% relative humidity)	Purity (%) Initial [3, 4]	Storage stability (in words) ([3]; 40° C./75% relative humidity)	Purity (%) Initial [3, 5]	Storage stability (in words) ([3]; 60° C. in open vessels)	Purity (%) After 2 months [3, 6]	Purity (%) After 2 months [3, 7]	Deliquescence ([3]; 40° C./75% relative humidity, listed as free form)
Bis[3-(3-{4-[3-(β-D-glucopyranosyloxy)-5-isopropyl-1H-pyrazol-4-ylmethyl]-3-methylphenoxy}propylamino)-2,2-dimethylpropionamide] monosebacate [Example 1]	83.8 ± 1.8 mg/dL	lower plasma glucose concentrations	141.3 ± 5.6 mg/dL	81.6 ± 3.1 mg/dL	lower plasma glucose concentrations	127.6 ± 3.8 mg/dL	Nil	99.6%	excellent storage stability	99.6%	almost no decrease in the purity	99.5%	99.2%	
O=C(O)[C@H](CC(=O)N1C[C@H]2CCCC[C@H]2C1)Cc1ccccc1 [Mitiglinide, mitiglinide calcium hydrate]	85.8 ± 1.7 mg/dL	lower plasma glucose concentrations	119.1 ± 5.8 mg/dL											
Cc1cc(OCCCNCC(C)(C)C(N)=O)ccc1Cc1c(O[C@@H]2O[C@H](CO)[C@@H](O)[C@H](O)[C@H]2O)n[nH]c1C(C)C [Comparative Example, 3-(3-{4-[3-(β-D-glucopyranosyloxy)-5-isopropyl-1H-pyrazol-4-ylmethyl]-3-methylphenoxy}propylamino)-2,2-dimethylpropionamide]							Yes	98.7%	decrease in the purity	98.7%	remarkable decrease in the purity due to the decomposition	97.0%	95.3%	deliquescence from the initial of the experiment
Cc1ccc(S(=O)(=O)NC(=O)NN2CC3CCCC3C2)cc1 (stereo not drawn) [Gliclazide, gliclazide]				80.7 ± 6.7 mg/dL	lower plasma glucose concentrations	136.5 ± 6.7 mg/dL								

Source: patent publication US20100279962A1, “MONOSEBACATE OF PYRAZOLE DERIVATIVE” (KISSEI PHARMACEUTICAL CO., LTD., priority 2007, published 2010)
